Results from ChEMBL document CHEMBL1765058, “Structural basis for the interaction between carbonic anhydrase and 1,2,3,4-tetrahydroisoquinolin-2-ylsulfonamides” (J Med Chem, 2011).

Biological target: Carbonic anhydrase 7 (Homo sapiens, UniProt P43166)
Test: Inhibition of human recombinant CAH7

Sequence of Carbonic anhydrase 7 (P43166 whole entry): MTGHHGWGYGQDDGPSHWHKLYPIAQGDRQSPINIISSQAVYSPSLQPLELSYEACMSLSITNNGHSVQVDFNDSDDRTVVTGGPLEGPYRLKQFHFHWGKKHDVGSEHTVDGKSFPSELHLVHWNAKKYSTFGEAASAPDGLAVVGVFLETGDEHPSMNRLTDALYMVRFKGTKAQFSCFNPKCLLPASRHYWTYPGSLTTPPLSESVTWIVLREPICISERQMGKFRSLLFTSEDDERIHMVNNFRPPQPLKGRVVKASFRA

## COc1cc2c(cc1OC)C(C)N(S(N)(=O)=O)CC2 (stereo unspecified)
  Ki: 6.4 nM
